Where two headings read alike, the source gives them in different places.
Columns and labels:
Assay in all cases: Fluorescence competition binding assay (displacement of DC271)
[1] = system: RARα; set-up: species or system human; details: log-log plot of K D for RARα and RARγ
Method: (§1) Fluorescence competition assays were employed to determine the relative binding affinities of each synthetic retinoid toward the LBD of the RARs. The assay is based on the potential for competitive displacement of the inherently fluorescent retinoid DC271 from the LBP by a test nonfluorescent synthetic retinoid. Changes in the fluorescence were measured following the addition of a serial dilution of the test compound and the results were plotted to generate a binding curve. […] Assays were performed for both RARα and RARγ. […] Nonlinear least-squares regression analyses were performed to calculate binding affinities and reported as binding K D, the equilibrium dissociation constant between the RAR isoform and the test synthetic retinoid.
(§2) RARα/γ proteins were expressed in BL21(DE3) cells (NEB) transformed into pET50b (Novagen) and pOPINS3C vectors, respectively, carrying the gene construct and containing a His6-3C-NusA tag or His6-3C-SUMO tag used for solubility. Transformations were carried out under standard conditions using Quick Transformation Protocol (New England Biolabs). Successful transformants were grown overnight in 2xYT media (Melford) and frozen for storage at −80 °C in 50% glycerol. Expression cultures were inoculated from glycerol stocks into 25 mL of 2xYT media (Melford) with 50 μg/mL kanamycin or 100 μg/mL ampicillin (Sigma-Aldrich) and grown overnight with shaking (37 °C, 150 rpm). The overnight cultures were transferred into 1 L expression flasks (2xYT/ampicillin 100 μg/mL or 2xYT/kanamycin 50 μg/mL) and grown with shaking at 37 °C, 150 rpm. Induction was carried out at an OD600 of 0.6–0.8, with 1 mL of 1 M IPTG (1 mM in culture), before shaking overnight (20 h) at 18 °C. The resulting cultures were spun down into pellets using an Avanti Hi-Speed centrifuge (JLA 8.1000, 4000 rpm, 30 min, 4 °C), before the supernatant was removed and the bacterial pellet were frozen at −80 °C.
(§3) RARα/γ (pET50b or pOPINS3C, BL21(DE3) (NEB)) were resuspended from pellet with 20 mL Wash Buffer (20 mM Tris-HCl, 300 mM NaCl and 20 mM imidazole, pH 8) and the resulting suspension was sonicated on ice (40% power, 2 min, repeated twice with 1 min rest in-between) before centrifuging (Avanti Hi-Speed JA25.50, 20,000 rpm, 1 h, 4 °C). Supernatants were clarified using 0.45 μm syringe filters (Thermo Fisher Scientific). Affinity chromatography and size-exclusion (SEC) chromatography were carried out on AKTA Pure25 (Cytiva). Supernatants were loaded onto the HisTrap HP column (5 mL, Cytiva) and washed using 25 mL of wash Buffer. The column was washed with Wash Buffer until UV trace returned to baseline, before RARα/γ was eluted using a gradient of Elution Buffer (20 mM Tris-HCl, 300 mM NaCl, 500 mM imidazole pH 8). The resulting protein-containing fractions were analyzed by SDS-PAGE (200 V, 30 min) using SurePAGE Bis-Tris 12% precast gels (Genscript). Protein concentrations were estimated using absorbance at 280 nm on a DS-11 spectrophotometer (Denovix) with calculated molecular weights and extinction coefficients (Expasy). RAR proteins were cleaved overnight from 3C-NusA tag or 3C-SUMO-His tag using 1 Unit/100 μg protein of HRV3C protease (Thermo Fisher Scientific) at 4 °C. Solution after digestion was loaded onto a HiLoad 16/600 Superdex 75 prep-grade column (Cytiva) and cleaved RARα/γ was separated from the tag based on molecular weight and eluted from the column using SEC Buffer (20 mM Tris-HCl, 300 mM NaCl and 0.5 mM TCEP, pH 8) into 2 mL fractions. The resulting protein fractions were analyzed by SDS PAGE (200 V, 30 min) using SurePAGE Bis-Tris 12% precast gels (Genscript), before being concentrated to 5 mg/mL using centrifugal concentrators (Sartorius) and frozen at −80 °C in small aliquots for use in binding assays.

[2] = target: T1, RARα (Homo sapiens, UniProt P10276); details: for Kd: 100 nM RAR and DC271 on plate, read-out: Binding KD (± SD) RARα; for ΔGEXP RARα: experimental binding free energy from K D, ΔGexp=−RT ln K, 298.1 K
T1 construct: His6-3C-NusA (cleaved yes); made in house; host or cells: E. coli BL21(DE3), pET50b vector
T1 sequence (P10276 183-417 limits assumed): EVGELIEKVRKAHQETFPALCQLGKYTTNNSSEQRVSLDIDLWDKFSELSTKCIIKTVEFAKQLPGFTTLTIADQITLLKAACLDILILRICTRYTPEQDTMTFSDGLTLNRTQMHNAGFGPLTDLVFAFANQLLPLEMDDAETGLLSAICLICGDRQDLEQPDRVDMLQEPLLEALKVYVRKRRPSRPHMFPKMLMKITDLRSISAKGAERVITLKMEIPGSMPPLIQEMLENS
Method: as §1, §2, §3

[3] = target: T2, RARα (Homo sapiens, UniProt P10276); details: for Kd: stated for the RARs (RARα and RARγ) together, read-out: K D, binding to the RARs
T2 sequence (P10276 182-417): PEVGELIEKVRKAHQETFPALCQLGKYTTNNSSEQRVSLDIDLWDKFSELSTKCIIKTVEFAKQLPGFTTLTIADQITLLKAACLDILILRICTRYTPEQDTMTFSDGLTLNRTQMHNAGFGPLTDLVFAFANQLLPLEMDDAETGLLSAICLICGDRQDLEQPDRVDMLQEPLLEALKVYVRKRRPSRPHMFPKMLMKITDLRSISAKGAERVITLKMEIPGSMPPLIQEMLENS
Method: as §1, §2, §3

[4] = target: T3, RARγ (Homo sapiens, UniProt P13631); details: for Kd: 100 nM RAR and DC271 on plate, read-out: Binding KD (± SD) RARγ; for ΔGEXP RARγ: experimental binding free energy from K D, ΔGexp=−RT ln K, 298.1 K
T3 construct: His6-3C-SUMO (cleaved yes); made in house; host or cells: E. coli BL21(DE3), pOPINS3C vector
T3 sequence (P13631 185-419 limits assumed): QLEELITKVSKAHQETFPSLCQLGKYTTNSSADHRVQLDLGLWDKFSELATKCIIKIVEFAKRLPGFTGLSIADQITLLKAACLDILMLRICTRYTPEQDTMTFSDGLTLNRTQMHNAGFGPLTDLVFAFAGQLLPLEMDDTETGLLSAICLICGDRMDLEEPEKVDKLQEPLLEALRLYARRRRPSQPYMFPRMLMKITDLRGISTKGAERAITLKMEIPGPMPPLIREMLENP
Method: as §1, §2, §3

Row | Kd [2] [nM] | ΔGEXP RARα [2] [kcal/mol] | Kd [3] [nM] | Kd [4] [nM] | ΔGEXP RARγ [4] [kcal/mol] | Structure (SMILES) | binding preference RARα versus RARγ (from K D) [1] | binding preference RARα versus RARγ (from K D) ([3]; log-log plot of K D for RARα and RARγ)
1 | 105 | -9.55 | 100 to 1000 | 355 | -8.81 | COc1cc2c(cc1C#Cc1cc(F)c(C(=O)O)c(F)c1)C(C)(C)CCC2(C)C [Compound 22, 2,6-Difluoro-4-[2-(3-methoxy-5,5,8,8-tetramethyl-5,6,7,8-tetrahydronaphthalen-2-yl)ethynyl]benzoic Acid] | bind RARα preferentially over RARγ | –
2 | 1820 | -7.84 | > 1000 | 2150 | -7.76 | COc1cc2c(cc1C#Cc1ccc(C(=O)O)cn1)C(C)(C)CCC2(C)C [Compound 27, 6-[2-(3-Methoxy-5,5,8,8-tetramethyl-5,6,7,8-tetrahydronaphthalen-2-yl)ethynyl]pyridine-3-carboxylic Acid] | close to the plotted line representing equal binding affinity for RARα and RARγ | –
3 | 420 | -8.72 | 100 to 1000 | 750 | -8.36 | Cc1cc2c(cc1C#Cc1ncc(C(=O)O)cn1)C(C)(C)CCC2(C)C [Compound 28, 2-[2-(3,5,5,8,8-Pentamethyl-5,6,7,8-tetrahydronaphthalen-2-yl)ethynyl]pyrimidine-5-carboxylic Acid] | bind RARα preferentially over RARγ | –
4 | 155 | -9.29 | 100 to 1000 | 217 | -9.09 | CC1(C)CCC(C)(C)c2nc(C#Cc3ccc(C(=O)O)cc3)cnc21 [Compound 30, 4-[2-(5,5,8,8-Tetramethyl-5,6,7,8-tetrahydroquinoxalin-2-yl)ethynyl]benzoic Acid] | close to the plotted line representing equal binding affinity for RARα and RARγ | –
5 | 203 | -9.13 | 100 to 1000 | 142 | -9.38 | CC1(C)CCC(C)(C)c2nc(C#Cc3ccc(C(=O)O)cc3F)cnc21 [Compound 31, 3-Fluoro-4-[2-(5,5,8,8-tetramethyl-5,6,7,8-tetrahydroquinoxalin-2-yl)ethynyl]benzoic Acid] | bind RARγ stronger than RARα | –
6 | 559 | -8.58 | 100 to 1000 | 655 | -8.44 | Cc1sc(-c2ccc(C(=O)O)cc2)nc1-c1cnc2c(n1)C(C)(C)CCC2(C)C [Compound 40, 4-[5-Methyl-4-(5,5,8,8-tetramethyl-5,6,7,8-tetrahydroquinoxalin-2-yl)-1,3-thiazol-2-yl]benzoic Acid] | close to the plotted line representing equal binding affinity for RARα and RARγ | –
7 | 162 | -9.27 | 100 to 1000 | 133 | -9.46 | Cc1sc(-c2ccc(C(=O)O)c(F)c2)nc1-c1cnc2c(n1)C(C)(C)CCC2(C)C [Compound 42, 2-Fluoro-4-[5-methyl-4-(5,5,8,8-tetramethyl-5,6,7,8-tetrahydroquinoxalin-2-yl)-1,3-thiazol-2-yl]benzoic Acid] | close to the plotted line representing equal binding affinity for RARα and RARγ | –
8 | 2580 | -7.64 | > 1000 | 2710 | -7.74 | Cc1sc(-c2ccc(C(=O)O)cc2F)nc1-c1cnc2c(n1)C(C)(C)CCC2(C)C [Compound 43, 3-Fluoro-4-[5-methyl-4-(5,5,8,8-tetramethyl-5,6,7,8-tetrahydroquinoxalin-2-yl)-1,3-thiazol-2-yl]benzoic Acid] | close to the plotted line representing equal binding affinity for RARα and RARγ | –

Row | Structure (SMILES) | Kd [2] [nM] | ΔGEXP RARα [2] [kcal/mol] | Kd [3] [nM] | Kd [4] [nM] | ΔGEXP RARγ [4] [kcal/mol] | binding preference RARα versus RARγ (from K D) [1] | binding preference RARα versus RARγ (from K D) ([3]; log-log plot of K D for RARα and RARγ)
9 | Cc1sc(-c2ccc(C(=O)O)cc2)nc1-c1ccc2c(c1)C(C)(C)CCC2(C)C [GZ25, reference compound] | 688 | -7.92 | 100 to 1000 | 335 | -8.84 | – | bind RARγ stronger than RARα

Source: paper PMC12163635, “Synthetic Retinoids for the Modulation of Genomic and Nongenomic Processes in Neurodegenerative Diseases” (ACS Omega, 2025)
